Values after ≈ are worked out from the molar mass of the structure shown. Active and inactive are the calls of the source. No cut-off for these calls is given here. Where a SMILES comes first, the peptide text is derived from it. The star is where a group is joined. βNA = c1ccc2cc(N*)ccc2c1
Key:
Pseudomonas aeruginosa [1] = assay: Antibacterial activity against Pseudomonas aeruginosa 16-11 in CAMH broth medium supplemented with 0.41 to 0.51 mM Mg2+ by checkerboard assay; assay type: functional
Pseudomonas aeruginosa [2] = assay: Antibacterial activity against Pseudomonas aeruginosa 21-2 assessed as inhibition of bacterial growth incubated for 18 hrs by agar dilution method; assay type: functional
Pseudomonas aeruginosa [3] = assay: Antibacterial activity against Pseudomonas aeruginosa 23-Y364 assessed as inhibition of bacterial growth incubated for 18 hrs by agar dilution method; assay type: functional
Pseudomonas aeruginosa [4] = assay: Synergistic antibacterial activity against Pseudomonas aeruginosa 12-1 assessed as aztreonam MIC at 128 ug/ml incubated for 18 hrs by checkerboard method; assay type: functional; conditions: dose 128 µg/ml
Pseudomonas aeruginosa [5] = assay: Synergistic antibacterial activity against Pseudomonas aeruginosa 23-Y372 assessed as fractional inhibitory concentration index at 128 ug/ml incubated for 18 hrs in presence of aztreonam by checkerboard method; assay type: functional; conditions: dose 128 µg/ml
Pseudomonas aeruginosa [6] = assay: Synergistic antibacterial activity against Pseudomonas aeruginosa 23-Y511 assessed as fractional inhibitory concentration index at 128 ug/ml incubated for 18 hrs in presence of aztreonam by checkerboard method; assay type: functional; conditions: dose 128 µg/ml
Pseudomonas aeruginosa [7] = assay: Synergistic antibacterial activity against Pseudomonas aeruginosa 12-1 assessed as fractional inhibitory concentration index at 128 ug/ml incubated for 18 hrs in presence of aztreonam by checkerboard method; assay type: functional; conditions: dose 128 µg/ml
Pseudomonas aeruginosa [8] = assay: Synergistic antibacterial activity against Pseudomonas aeruginosa 13-17 assessed as fractional inhibitory concentration index at 128 ug/ml incubated for 18 hrs in presence of aztreonam by checkerboard method; assay type: functional; conditions: dose 128 µg/ml
Pseudomonas aeruginosa [9] = assay: Synergistic antibacterial activity against Pseudomonas aeruginosa 19-46 assessed as fractional inhibitory concentration index at 128 ug/ml incubated for 18 hrs in presence of aztreonam by checkerboard method; assay type: functional; conditions: dose 128 µg/ml
Pseudomonas aeruginosa [10] = assay: Synergistic antibacterial activity against Pseudomonas aeruginosa 23-Y364 assessed as fractional inhibitory concentration index at 128 ug/ml incubated for 18 hrs in presence of aztreonam by checkerboard method; assay type: functional; conditions: dose 128 µg/ml
Pseudomonas aeruginosa [11] = assay: Antibacterial activity against Pseudomonas aeruginosa PAO1 in CAMH broth medium supplemented with 20.99 to 21.09 mM Mg2+ by checkerboard assay; assay type: functional
Pseudomonas aeruginosa [12] = assay: Antibacterial activity against Pseudomonas aeruginosa 13-35 in CAMH broth medium supplemented with 20.99 to 21.09 mM Mg2+ by checkerboard assay; assay type: functional
Pseudomonas aeruginosa [13] = assay: Synergistic antibacterial activity against Pseudomonas aeruginosa PAO1 in CAMH broth medium supplemented with 0.41 to 0.51 mM Mg2+ in presence of aztreonam by checkerboard assay; assay type: functional
Pseudomonas aeruginosa [14] = assay: Synergistic antibacterial activity against Pseudomonas aeruginosa 16-11 in CAMH broth medium supplemented with 0.41 to 0.51 mM Mg2+ in presence of aztreonam by checkerboard assay; assay type: functional
Pseudomonas aeruginosa [15] = assay: Synergistic antibacterial activity against Pseudomonas aeruginosa 12-1 in CAMH broth medium supplemented with 0.41 to 0.51 mM Mg2+ in presence of aztreonam by checkerboard assay; assay type: functional
Pseudomonas aeruginosa [16] = assay: Synergistic antibacterial activity against Pseudomonas aeruginosa 12-1 in CAMH broth medium supplemented with 20.99 to 21.09 mM Mg2+ in presence of aztreonam by checkerboard assay; assay type: functional
Pseudomonas aeruginosa [17] = assay: Synergistic antibacterial activity against Pseudomonas aeruginosa PAO1 assessed as fractional inhibitory concentration index in CAMH broth medium supplemented with 0.41 to 0.51 mM Mg2+ in presence of aztreonam by checkerboard assay; assay type: functional
Pseudomonas aeruginosa [18] = assay: Synergistic antibacterial activity against Pseudomonas aeruginosa 16-11 assessed as fractional inhibitory concentration index in CAMH broth medium supplemented with 0.41 to 0.51 mM Mg2+ in presence of aztreonam by checkerboard assay; assay type: functional
Pseudomonas aeruginosa [19] = assay: Antibacterial activity against Pseudomonas aeruginosa 16-2 assessed as inhibition of bacterial growth incubated for 18 hrs by agar dilution method; assay type: functional
Pseudomonas aeruginosa [20] = assay: Antibacterial activity against Pseudomonas aeruginosa 19-55 assessed as inhibition of bacterial growth incubated for 18 hrs by agar dilution method; assay type: functional
Pseudomonas aeruginosa [21] = assay: Antibacterial activity against Pseudomonas aeruginosa 21-7 assessed as inhibition of bacterial growth incubated for 18 hrs by agar dilution method; assay type: functional
Pseudomonas aeruginosa [22] = assay: Synergistic antibacterial activity against Pseudomonas aeruginosa 21-8 assessed as aztreonam MIC at 128 ug/ml incubated for 18 hrs by checkerboard method; assay type: functional; conditions: dose 128 µg/ml
Pseudomonas aeruginosa [23] = assay: Synergistic antibacterial activity against Pseudomonas aeruginosa 13-35 assessed as aztreonam MIC at 128 ug/ml incubated for 18 hrs by checkerboard method; assay type: functional; conditions: dose 128 µg/ml
Pseudomonas aeruginosa [24] = assay: Synergistic antibacterial activity against Pseudomonas aeruginosa 23-Y372 assessed as aztreonam MIC at 128 ug/ml incubated for 18 hrs by checkerboard method; assay type: functional; conditions: dose 128 µg/ml
Pseudomonas aeruginosa [25] = assay: Synergistic antibacterial activity against Pseudomonas aeruginosa 23-Y511 assessed as aztreonam MIC at 128 ug/ml incubated for 18 hrs by checkerboard method; assay type: functional; conditions: dose 128 µg/ml
Pseudomonas aeruginosa [26] = assay: Synergistic antibacterial activity against Pseudomonas aeruginosa 16-2 assessed as aztreonam MIC at 128 ug/ml incubated for 18 hrs by checkerboard method; assay type: functional; conditions: dose 128 µg/ml
Pseudomonas aeruginosa [27] = assay: Synergistic antibacterial activity against Pseudomonas aeruginosa 23-Y539 assessed as aztreonam MIC at 128 ug/ml incubated for 18 hrs by checkerboard method; assay type: functional; conditions: dose 128 µg/ml
Pseudomonas aeruginosa [28] = assay: Synergistic antibacterial activity against Pseudomonas aeruginosa 19-46 assessed as aztreonam MIC at 128 ug/ml incubated for 18 hrs by checkerboard method; assay type: functional; conditions: dose 128 µg/ml
Pseudomonas aeruginosa [29] = assay: Synergistic antibacterial activity against Pseudomonas aeruginosa 19-55 assessed as aztreonam MIC at 128 ug/ml incubated for 18 hrs by checkerboard method; assay type: functional; conditions: dose 128 µg/ml
Pseudomonas aeruginosa [30] = assay: Synergistic antibacterial activity against Pseudomonas aeruginosa 21-7 assessed as aztreonam MIC at 128 ug/ml incubated for 18 hrs by checkerboard method; assay type: functional; conditions: dose 128 µg/ml
Pseudomonas aeruginosa [31] = assay: Antibacterial activity against Pseudomonas aeruginosa PAO1 at 128 ug/ml measured upto 24 hrs by time-kill assay; assay type: functional, organism-based; conditions: dose 128.0 µg/ml
Pseudomonas aeruginosa [32] = assay: Antibacterial activity against Pseudomonas aeruginosa PAO1 infected in Galleria mellonella assessed as increase in larvae survival at 100 mg/kg after 12 hrs of innoculation; assay type: functional, organism-based
Pseudomonas aeruginosa [33] = assay: Inhibition of Pseudomonas aeruginosa 26 MexAB-OprM assessed as accumulation of Hoechst […] at 64 ug/ml; conditions: dose 64.0 µg/ml
Pseudomonas aeruginosa [34] = assay: Synergistic antibacterial activity against Pseudomonas aeruginosa PAO1 assessed as aztreonam MIC in CAMH broth medium supplemented with 0.41 to 0.51 mM Mg2+ by checkerboard assay; assay type: functional
Pseudomonas aeruginosa [35] = assay: Synergistic antibacterial activity against Pseudomonas aeruginosa PAO1 assessed as aztreonam MIC in CAMH broth medium supplemented with 20.99 to 21.09 mM Mg2+ by checkerboard assay; assay type: functional
Pseudomonas aeruginosa [36] = assay: Synergistic antibacterial activity against Pseudomonas aeruginosa 16-11 assessed as aztreonam MIC in CAMH broth medium supplemented with 20.99 to 21.09 mM Mg2+ by checkerboard assay; assay type: functional
Pseudomonas aeruginosa [37] = assay: Synergistic antibacterial activity against Pseudomonas aeruginosa 13-35 assessed as aztreonam MIC in CAMH broth medium supplemented with 20.99 to 21.09 mM Mg2+ by checkerboard assay; assay type: functional
Pseudomonas aeruginosa [38] = assay: Synergistic antibacterial activity against Pseudomonas aeruginosa 12-1 assessed as aztreonam MIC in CAMH broth medium supplemented with 20.99 to 21.09 mM Mg2+ by checkerboard assay; assay type: functional

## N=C(N)NCCC[C@H](NC(=O)[C@@H](N)Cc1ccccc1)C(=O)Nc1ccc2ccccc2c1 [PABETAN] (H-Phe-Arg-βNA)
Pseudomonas aeruginosa [1]
  MIC: 512 µg/mL
Pseudomonas aeruginosa [2]
  MIC: 512 µg/mL (≈ 1150 µM)
Pseudomonas aeruginosa [3]
  MIC: 512 µg/mL (≈ 1150 µM)
Pseudomonas aeruginosa [4]
  MIC: 8 µg/mL
Pseudomonas aeruginosa [5]
  fractional inhibitory concentration index (FICI): 0.375
Pseudomonas aeruginosa [6]
  fractional inhibitory concentration index (FICI): 1
Pseudomonas aeruginosa [7]
  fractional inhibitory concentration index (FICI): 0.375
Pseudomonas aeruginosa [8]
  fractional inhibitory concentration index (FICI): 0.313
Pseudomonas aeruginosa [9]
  fractional inhibitory concentration index (FICI): 0.375
Pseudomonas aeruginosa [10]
  fractional inhibitory concentration index (FICI): 0.281
Pseudomonas aeruginosa [11]
  MIC: 512 µg/mL
Pseudomonas aeruginosa [12]
  MIC: 512 µg/mL
Pseudomonas aeruginosa [13]
  MIC: 128 µg/mL
Pseudomonas aeruginosa [14]
  MIC: 128 µg/mL
Pseudomonas aeruginosa [15]
  MIC: 128 µg/mL
Pseudomonas aeruginosa [16]
  MIC: 128 µg/mL
Pseudomonas aeruginosa [17]
  fractional inhibitory concentration index (FICI): 0.5
Pseudomonas aeruginosa [18]
  fractional inhibitory concentration index (FICI): 1.25

## NCCC[C@H](NC(=O)C[C@@H](N)Cc1ccccc1)C(=O)Nc1ccc2ccccc2c1
Pseudomonas aeruginosa [1]
  MIC: 512 µg/mL
Pseudomonas aeruginosa [19]
  MIC: 513 µg/mL (≈ 1230 µM)
Pseudomonas aeruginosa [2]
  MIC: > 512 µg/mL
Pseudomonas aeruginosa [20]
  MIC: 512 µg/mL (≈ 1220 µM)
Pseudomonas aeruginosa [21]
  MIC: 512 µg/mL (≈ 1220 µM)
Pseudomonas aeruginosa [3]
  MIC: > 512 µg/mL
Pseudomonas aeruginosa [22]
  MIC: 2 µg/mL
Pseudomonas aeruginosa [23]
  MIC: 4 µg/mL
Pseudomonas aeruginosa [24]
  MIC: 4 µg/mL
Pseudomonas aeruginosa [25]
  MIC: 16 µg/mL
Pseudomonas aeruginosa [4]
  MIC: 16 µg/mL
Pseudomonas aeruginosa [26]
  MIC: 16 µg/mL
Pseudomonas aeruginosa [27]
  MIC: 4 µg/mL
Pseudomonas aeruginosa [28]
  MIC: 16 µg/mL
Pseudomonas aeruginosa [29]
  MIC: 8 µg/mL
Pseudomonas aeruginosa [30]
  MIC: 64 µg/mL
Pseudomonas aeruginosa [5]
  fractional inhibitory concentration index (FICI): 0.375
Pseudomonas aeruginosa [6]
  fractional inhibitory concentration index (FICI): 1
Pseudomonas aeruginosa [7]
  fractional inhibitory concentration index (FICI): 0.5
Pseudomonas aeruginosa [8]
  fractional inhibitory concentration index (FICI): 0.313
Pseudomonas aeruginosa [9]
  fractional inhibitory concentration index (FICI): 0.375
Pseudomonas aeruginosa [10]
  fractional inhibitory concentration index (FICI): <0.281
Pseudomonas aeruginosa [31]
  Activity: inactive
Pseudomonas aeruginosa [32]
  Activity: inactive
Pseudomonas aeruginosa [33]
  inhibition: Active
Pseudomonas aeruginosa [11]
  MIC: 512 µg/mL
Pseudomonas aeruginosa [12]
  MIC: 512 µg/mL
Pseudomonas aeruginosa [34]
  MIC: 2 µg/mL
Pseudomonas aeruginosa [35]
  MIC: 8 µg/mL
Pseudomonas aeruginosa [36]
  MIC: 8 µg/mL
Pseudomonas aeruginosa [37]
  MIC: 32 µg/mL
Pseudomonas aeruginosa [38]
  MIC: 64 µg/mL
Pseudomonas aeruginosa [13]
  MIC: 128 µg/mL
Pseudomonas aeruginosa [14]
  MIC: 128 µg/mL
Pseudomonas aeruginosa [15]
  MIC: 128 µg/mL
Pseudomonas aeruginosa [16]
  MIC: 128 µg/mL
Pseudomonas aeruginosa [17]
  fractional inhibitory concentration index (FICI): 0.5
Pseudomonas aeruginosa [18]
  fractional inhibitory concentration index (FICI): 1.25

From ChEMBL document CHEMBL5625252, “Synthesis of peptidomimetics as antibiotic adjuvants for combination with aztreonam to combat MDR Pseudomonas aeruginosa” (Eur J Med Chem, 2023)
